{"source": "paper PMC6151782", "about": "“Synthesis, In Vitro α-Glucosidase Inhibitory Activity and Molecular Docking Studies of Novel Benzothiazole-Triazole Derivatives” (Molecules : A Journal of Synthetic Chemistry and Natural …, 2017)", "key": {"[1]": {"target": "T1, Baker’s yeast α-glucosidase enzyme (Saccharomyces cerevisiae, UniProt P53341)", "T1 construct": "purchased", "T1 sequence (P53341 whole entry)": "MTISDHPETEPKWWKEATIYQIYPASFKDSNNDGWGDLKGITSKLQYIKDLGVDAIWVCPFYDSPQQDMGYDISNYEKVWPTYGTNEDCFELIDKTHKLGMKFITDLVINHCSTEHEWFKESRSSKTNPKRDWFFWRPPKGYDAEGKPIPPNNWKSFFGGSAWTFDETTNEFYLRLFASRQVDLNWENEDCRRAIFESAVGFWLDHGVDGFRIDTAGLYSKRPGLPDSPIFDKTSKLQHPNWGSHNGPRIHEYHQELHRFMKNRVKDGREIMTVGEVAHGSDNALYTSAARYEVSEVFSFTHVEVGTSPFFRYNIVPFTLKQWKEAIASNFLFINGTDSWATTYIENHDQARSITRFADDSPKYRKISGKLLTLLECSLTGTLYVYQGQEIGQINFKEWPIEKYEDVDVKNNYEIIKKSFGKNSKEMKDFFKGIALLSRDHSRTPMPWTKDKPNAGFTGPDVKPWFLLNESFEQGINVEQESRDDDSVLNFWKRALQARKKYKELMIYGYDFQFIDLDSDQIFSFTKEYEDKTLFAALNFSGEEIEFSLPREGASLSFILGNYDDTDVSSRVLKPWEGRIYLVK", "assay": "biochemical", "excerpt": "The sample solution was replaced by DMSO as a control. Acarbose was used as a positive control."}}}
{"compound": "Brc1ccc(Cn2cc(CSc3nc4ccccc4s3)nn2)cc1", "note": "[Compound 6a, 2-(((1-(4-Bromobenzyl)-1H-1,2,3-triazol-4-yl)methyl)thio)benzo[d]thiazole]", "values": [{"measurement": "melting point", "value": "112 to 114", "unit": "°C"}, {"measurement": "IC50", "setting": "[1]", "value": 28.7, "unit": "µM"}]}
{"compound": "Clc1ccccc1Cn1cc(CSc2nc3ccccc3s2)nn1", "note": "[Compound 6b, 2-(((1-(2-Chlorobenzyl)-1H-1,2,3-triazol-4-yl)methyl)thio)benzo[d]thiazole]", "values": [{"measurement": "melting point", "value": "110 to 111", "unit": "°C"}, {"measurement": "IC50", "setting": "[1]", "value": "> 100", "unit": "µM"}]}
{"compound": "Brc1ccccc1Cn1cc(CSc2nc3ccccc3s2)nn1", "note": "[Compound 6c, 2-(((1-(2-Bromobenzyl)-1H-1,2,3-triazol-4-yl)methyl)thio)benzo[d]thiazole]", "values": [{"measurement": "melting point", "value": "104 to 106", "unit": "°C"}, {"measurement": "IC50", "setting": "[1]", "value": 37.4, "unit": "µM"}]}
{"compound": "Fc1cccc(Cn2cc(CSc3nc4ccccc4s3)nn2)c1", "note": "[Compound 6d, 2-(((1-(3-Fluorobenzyl)-1H-1,2,3-triazol-4-yl)methyl)thio)benzo[d]thiazole]", "values": [{"measurement": "melting point", "value": "112 to 114", "unit": "°C"}, {"measurement": "IC50", "setting": "[1]", "value": 61.1, "unit": "µM"}]}
{"compound": "Clc1ccc(Cn2cc(CSc3nc4ccccc4s3)nn2)cc1", "note": "[Compound 6e, 2-(((1-(4-Chlorobenzyl)-1H-1,2,3-triazol-4-yl)methyl)thio)benzo[d]thiazole]", "values": [{"measurement": "melting point", "value": "119 to 120", "unit": "°C"}, {"measurement": "IC50", "setting": "[1]", "value": 27.4, "unit": "µM"}]}
{"compound": "Fc1ccccc1Cn1cc(CSc2nc3ccccc3s2)nn1", "note": "[Compound 6f, 2-(((1-(2-Fluorobenzyl)-1H-1,2,3-triazol-4-yl)methyl)thio)benzo[d]thiazole]", "values": [{"measurement": "melting point", "value": "86 to 88", "unit": "°C"}, {"measurement": "IC50", "setting": "[1]", "value": "> 100", "unit": "µM"}]}
{"compound": "c1ccc(Cn2cc(CSc3nc4ccccc4s3)nn2)cc1", "note": "[Compound 6g, 2-(((1-Benzyl-1H-1,2,3-triazol-4-yl)methyl)thio)benzo[d]thiazole]", "values": [{"measurement": "melting point", "value": "109 to 110", "unit": "°C"}, {"measurement": "IC50", "setting": "[1]", "value": "> 100", "unit": "µM"}]}
{"compound": "CC(C)(C)c1ccc(Cn2cc(CSc3nc4ccccc4s3)nn2)cc1", "note": "[Compound 6i, 2-(((1-(4-(Tert-butyl)benzyl)-1H-1,2,3-triazol-4-yl)methyl)thio)benzo[d]thiazole]", "values": [{"measurement": "melting point", "value": "77 to 78", "unit": "°C"}, {"measurement": "IC50", "setting": "[1]", "value": 29.4, "unit": "µM"}]}
{"compound": "Fc1ccccc1Cn1cc(CSc2nc3cc(Cl)ccc3s2)nn1", "note": "[Compound 6j, 5-Chloro-2-(((1-(2-fluorobenzyl)-1H-1,2,3-triazol-4-yl)methyl)thio)benzo[d]thiazole]", "values": [{"measurement": "melting point", "value": "115 to 117", "unit": "°C"}, {"measurement": "IC50", "setting": "[1]", "value": 45.9, "unit": "µM"}]}
{"compound": "Clc1ccc2sc(SCc3cn(Cc4ccccc4Br)nn3)nc2c1", "note": "[Compound 6k, 2-(((1-(2-Bromobenzyl)-1H-1,2,3-triazol-4-yl)methyl)thio)-5-chlorobenzo[d]thiazole]", "values": [{"measurement": "melting point", "value": "119 to 120", "unit": "°C"}, {"measurement": "IC50", "setting": "[1]", "value": 48.4, "unit": "µM"}]}
{"compound": "Clc1ccc2sc(SCc3cn(Cc4ccccc4Cl)nn3)nc2c1", "note": "[Compound 6l, 5-Chloro-2-(((1-(2-chlorobenzyl)-1H-1,2,3-triazol-4-yl)methyl)thio)benzo[d]thiazole]", "values": [{"measurement": "melting point", "value": "128 to 130", "unit": "°C"}, {"measurement": "IC50", "setting": "[1]", "value": 33.6, "unit": "µM"}]}
{"compound": "Clc1ccc(Cn2cc(CSc3nc4cc(Cl)ccc4s3)nn2)cc1", "note": "[Compound 6m, 5-Chloro-2-(((1-(4-chlorobenzyl)-1H-1,2,3-triazol-4-yl)methyl)thio)benzo[d]thiazole]", "values": [{"measurement": "melting point", "value": "111 to 112", "unit": "°C"}, {"measurement": "IC50", "setting": "[1]", "value": 28.2, "unit": "µM"}]}
{"compound": "Clc1ccc2sc(SCc3cn(Cc4ccc(Br)cc4)nn3)nc2c1", "note": "[Compound 6n, 2-(((1-(4-Bromobenzyl)-1H-1,2,3-triazol-4-yl)methyl)thio)-5-chlorobenzo[d]thiazole]", "values": [{"measurement": "melting point", "value": "114 to 116", "unit": "°C"}, {"measurement": "IC50", "setting": "[1]", "value": 28, "unit": "µM"}]}
{"compound": "Clc1cc(Cl)cc(Cn2cc(CSc3nc4cc(Cl)ccc4s3)nn2)c1", "note": "[Compound 6o, 5-Chloro-2-(((1-(3,5-dichlorobenzyl)-1H-1,2,3-triazol-4-yl)methyl)thio)benzo[d]thiazole]", "values": [{"measurement": "melting point", "value": "124 to 126", "unit": "°C"}, {"measurement": "IC50", "setting": "[1]", "value": 22.3, "unit": "µM"}]}
{"compound": "Fc1cccc(Cn2cc(CSc3nc4cc(Cl)ccc4s3)nn2)c1", "note": "[Compound 6p, 5-Chloro-2-(((1-(3-fluorobenzyl)-1H-1,2,3-triazol-4-yl)methyl)thio)benzo[d]thiazole]", "values": [{"measurement": "melting point", "value": "140 to 141", "unit": "°C"}, {"measurement": "IC50", "setting": "[1]", "value": 38.6, "unit": "µM"}]}
{"compound": "Fc1ccc(Cn2cc(CSc3nc4cc(Cl)ccc4s3)nn2)cc1", "note": "[Compound 6q, 5-Chloro-2-(((1-(4-fluorobenzyl)-1H-1,2,3-triazol-4-yl)methyl)thio)benzo[d]thiazole]", "values": [{"measurement": "melting point", "value": "108 to 109", "unit": "°C"}, {"measurement": "IC50", "setting": "[1]", "value": 53.1, "unit": "µM"}]}
{"compound": "Clc1ccc2sc(SCc3cn(Cc4ccccc4)nn3)nc2c1", "note": "[Compound 6r, 2-(((1-Benzyl-1H-1,2,3-triazol-4-yl)methyl)thio)-5-chlorobenzo[d]thiazole]", "values": [{"measurement": "melting point", "value": "142 to 144", "unit": "°C"}, {"measurement": "IC50", "setting": "[1]", "value": 44.4, "unit": "µM"}]}
